Results: US20250188078A1, “SMALL MOLECULE INHIBITORS OF THE CRL4 UBIQUITIN LIGASE” (Cornell University, priority 2022, published 2025)
Like-named read-outs stand apart in the source and are kept apart here.

Tests used:
[1] = target: CUL4A-DDB1-BPB interaction (Homo sapiens (Human), UniProt Q16531); test: AlphaLISA in vitro binding assay, CUL4A and DDB1-BPB binding; conditions: inhibition of CUL4A and DDB1-BPB binding
Method in brief: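 Compound disruption of CUL4A binding to DDB1-BPB measured by AlphaLISA/AlphaScreen bead proximity in 384-well format. IC50 from nonlinear log(inhibitor)-vs-response curve fit.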

[2] = tested on: CUL4A^low T47D breast cancer cells; test: Cell killing in CUL4-low T47D cells (CellTiter Glo); type: cell-based; conditions: Homo sapiens, 192 h, 8 days treatment
[3] = target: DDB1-BPB (Homo sapiens (Human), UniProt Q16531); test: Microscale Thermophoresis (MST) binding to DDB1-BPB; conditions: labeled DDB1-BPB, 25° C.
Method: Kd represents dissociation constant, which measures the affinity of small molecule binding to the scaffold DDB1-BPB by Microscale Thermophoresis (MST) (see Table 1, column 9). MST experiments were performed on a Monolith NT 115 system (Nano Temper Technologies, Munich, Germany) using 100% LED and 60% IR-laser power (https://physiology.case.edu/media/eq manuals/eq_manual_nano-temper_mst_starting_guide.pdf, hereby incorporated by reference in its entirety for all purposes). The labeling of DDB1-BPB ([…]) was performed in labeling buffer with NHS-Red reactive dye (30 μM) (Nanotemper), which reacts efficiently with the primary amines of the proteins to form a stable dye protein conjugates. The labeling reaction was carried out at RT. A 16-point serial dilution (1:1) was prepared for compound at the final concentration ranged from 200 µM to 3 nM in PBS containing 0.05% tween. The samples were filled into Premium capillaries and measurements were conducted at 25° C. An equation implemented by the software MO-S002 MO Affinity Analysis, provided by the manufacturer, was used for fitting normalized fluorescence values at different concentrations of ligands.

[4] = tested on: CUL4A-Vpr-dependent UNG2 degradation in Hela DOX-inducible-Vpr cells; test: DOX-induced Vpr-mediated CUL4-dependent UNG2 degradation (Western blot); type: cell-based; conditions: FIG. 6C
Method: FIG. 6C. Inhibition of DOX-induced Vpr-mediated CUL4-dependent UNG2 degradation by small molecule CUL4 inhibitors. In brief, Hela DOX-inducible-Vpr cells were seeded in 6-well plates. After 24 hours incubation, medium was changed to growth medium with 75 ng/ml doxycycline (DOX) overnight. On the third day, DMSO or indicated concentrations of compounds in serum-free medium containing DOX were added. The cells were lysed in buffer containing 150 mM NaCl, 1% SDS, 10 mM Tris-HCl (pH 6.8), 1× complete protease inhibitor cocktail and 10 U Benzo nuclease. Equal amounts of proteins were resolved on 9% SDS-PAGE gel and UNG2 levels were detected using anti-UNG2 (2C12) antibody (Origene #TA503563). α-tubulin (Proteintech, #66031-1-Ig) was used as an internal control. Normalized UNG2/α-tubulin ratio is higher in the compound treated sample than DMSO treated sample. (−) means that no change happens between compound treated sample with control sample.

[5] = tested on: CUL1-dependent IκB-α degradation in Hela cells; test: TNFα-induced CUL1/SCF-dependent IκBα degradation assay (Western blot); type: cell-based; conditions: FIG. 6D
Method: FIG. 6D Western blotting of TNFα-induced […] IκBα degradation assay. Hela cells were seeded in 6-well plates. After 24 hours incubation, DMSO or indicated concentration of compounds were added with serum-free medium for 2 hours incubation. TNFα was added and cells were harvested, lysed in buffer containing 150 mM NaCl, 1% SDS, 10 mM Tris-HCl (pH 6.8), 1× complete protease inhibitor cocktail and 10 U Benzo nuclease. Equal amounts of proteins were resolved on 9% SDS-PAGE gel and IκBα levels were detected using anti-IκBα rabbit polyclonal antibody (Proteintech, 10268-1-AP). α-tubulin (Proteintech, #66031-1-Ig) was used as an internal loading control. TNFα-induced IκBα degradation was mediated by CUL1/SCF^βTrCP E3 ligase.

[6] = T47D cells, read-out: EC50 CUL4-Low Cells (cell killing)

Chain of DDB1-BPB (Q16531 403-706): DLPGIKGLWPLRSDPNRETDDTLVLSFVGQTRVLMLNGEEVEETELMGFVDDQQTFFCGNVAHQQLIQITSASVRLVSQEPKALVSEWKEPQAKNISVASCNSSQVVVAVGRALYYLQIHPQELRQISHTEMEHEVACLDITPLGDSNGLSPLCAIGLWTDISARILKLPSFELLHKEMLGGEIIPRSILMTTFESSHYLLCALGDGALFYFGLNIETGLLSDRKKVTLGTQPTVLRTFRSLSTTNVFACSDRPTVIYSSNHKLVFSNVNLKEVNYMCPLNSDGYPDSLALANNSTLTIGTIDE
Chain of CUL4A-DDB1-BPB interaction (Q16531 403-706): as above

Row | Compound | IC50 [1] [nM] | EC50 [2, 6] [nM] | Kd (MST) [3] | Inhibition of CUL4A-Vpr-dependent UNG2 degradation [4] | Inhibition of TNF-α induced CUL1-dependent IκB-α degradation [5] | EC50 ([2]; T47D, Table 3, 0 to 20 μM compound, read-out: EC50 OF cell killing, T47D) [nM] | Kd [3] [nM]
1 | CN(c1ccc(-c2nc(C(=O)O)cc3c2[nH]c2ccc(F)cc23)cc1)S(=O)(=O)c1ccccc1 [PA93] | 210 ± 100 | > 100000 | Insoluble | robust inhibition | no inhibition | – | –
2 | CN(c1ccc(-c2nc(C(=O)O)cc3c2[nH]c2cccc(F)c23)cc1)S(=O)(=O)c1ccccc1 [PA99, 5-fluoro-1-(4-(N-methylphenylsulfonamido)phenyl)-9H-pyrido[3,4-b]indole-3-carboxylic acid] | 380 | 8270 | – | robust inhibition | no inhibition | 8270 | 2970
